{"source": "patent US20050009837A1", "about": "“Modulators of lipid metabolism and methods of use” (City of Hope, priority 2003, published 2005)", "test_system": "NIH3T3-L1 adipocytes", "experiment": "Triglyceride content (Nile Red) of NIH3T3-L1 cells differentiated to adipocytes", "type": "cell-based", "conditions": "7 days", "procedure": "NIH 3T3-L1 cells were maintained in growth media consisting of Dulbecco's modified Eagle's medium (DMEM) supplemented with 10% calf bovine serum (CBS), 50 U/ml penicillin G and 50 μg/ml streptomycin sulfate. To induce NIH 3T3-L1 differentiation into adipocytes, confluent cells were transferred from their growth media to DMEM containing 10% fetal bovine serum (FBS), 5 μg/ml insulin, 0.5 mM 3-isobutyl-1-methylxanthine (IBMX) and 1 μM dexamethasone for 7 days. During the differentiation period, cells also optionally received 200 nM T0901317, 7.5 μM Clotrimazole or both.\nNIH3T3-L1 cells were allowed to differentiate for 7 days in the presence of a well-established differentiation cocktail containing dexamethazole (1 μm), IBMX (0.5 mM) and insulin (5 μg/ml) in the absence or presence of T0901317 (200 nM) or Clotrimazole (7.5 μm). The cells then were fixed and stained with Nile Red, which stains triglycerides (TG) green, and DAPI to visualize nuclei (in blue). TG content of the cell reflected increased or decreased lipogenesis.", "data": [{"smiles": "Clc1ccccc1C(c1ccccc1)(c1ccccc1)n1ccnc1", "note": "[Clotrimazole]", "values": [{"measurement": "TG content compared to treatment with T0901317 alone", "setting": "Clotrimazole 7.5 μm plus T0901317 200 nM", "result": "reduction in TG content"}, {"measurement": "TG content compared to differentiation cocktail only", "setting": "T0901317 200 nM or Clotrimazole 7.5 μm", "result": "decreased"}]}]}
